Experimental data from PubChem BioAssay AID248 (DTP/NCI, 2004).
Values joined by “and” are separate entries in the source; they are usually repeats but may differ in a detail not shown here. Identical values can stand only once. Toxic doses and inconclusive results are not listed.

Tested on: L1210 leukemia ip in BDF1 mice, survival T/C
Assay: NCI In Vivo Anticancer Drug Screen. Data for tumor model L1210 Leukemia (intraperitoneal) in B6D2F1 (BDF1) mice
Details: endpoint: mean survival time, higher = longer survival
Method in brief: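 Transplantable tumor model; survival measured in treated vs vehicle control mice. Value = treated/control.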

[1] = dose: 50.0 mg/kg/injection, schedule: Q04DX003 (ip), vehicle: Klucel (hydroxypropylcellulose) (HPC)
[2] = dose: 100.0 mg/kg/injection, schedule: Q04DX003 (ip), vehicle: Klucel (hydroxypropylcellulose) (HPC)
[3] = dose: 100.0 mg/kg/injection, schedule: Q04DX002 (ip), vehicle: Klucel (hydroxypropylcellulose) (HPC)
[4] = dose: 200.0 mg/kg/injection, schedule: Q04DX002 (ip), vehicle: Klucel (hydroxypropylcellulose) (HPC)
[5] = dose: 100.0 mg/kg/injection, schedule: Q01DX009 (ip), vehicle: Klucel (hydroxypropylcellulose) (HPC)
[6] = dose: 200.0 mg/kg/injection, schedule: Q01DX009 (ip), vehicle: Klucel (hydroxypropylcellulose) (HPC)
[7] = dose: 400.0 mg/kg/injection, schedule: Q01DX009 (ip), vehicle: Klucel (hydroxypropylcellulose) (HPC)
[8] = dose: 100.0 mg/kg/injection, schedule: Q01DX001 (ip), vehicle: carboxymethylcellulose (CMC)
[9] = dose: 200.0 mg/kg/injection, schedule: Q01DX001 (ip), vehicle: carboxymethylcellulose (CMC)
[10] = dose: 400.0 mg/kg/injection, schedule: Q01DX001 (ip), vehicle: carboxymethylcellulose (CMC)
[11] = dose: 100.0 mg/kg/injection, schedule: Q01DX009 (ip), vehicle: saline with Tween-80
[12] = dose: 200.0 mg/kg/injection, schedule: Q01DX009 (ip), vehicle: saline with Tween-80
[13] = dose: 100.0 mg/kg/injection, schedule: Q01DX009 (ip), vehicle: saline
[14] = dose: 100.0 mg/kg/injection, schedule: Q04DX003 (ip), vehicle: saline
[15] = dose: 200.0 mg/kg/injection, schedule: Q04DX003 (ip), vehicle: Klucel (hydroxypropylcellulose) (HPC)
[16] = dose: 50.0 mg/kg/injection, schedule: Q01DX001 (ip), vehicle: saline
[17] = dose: 100.0 mg/kg/injection, schedule: Q01DX001 (ip), vehicle: saline
[18] = dose: 200.0 mg/kg/injection, schedule: Q01DX001 (ip), vehicle: saline
[19] = dose: 400.0 mg/kg/injection, schedule: Q01DX001 (ip), vehicle: saline
[20] = dose: 400.0 mg/kg/injection, schedule: Q04DX003 (ip), vehicle: Klucel (hydroxypropylcellulose) (HPC)
[21] = dose: 50.0 mg/kg/injection, schedule: Q01DX009 (ip), vehicle: saline with Tween-80

COc1cc(CCN)ccc1OCc1ccccc1
T/C (dose: 25.0 mg/kg/injection, schedule: Q04DX003 (ip), vehicle: Klucel (hydroxypropylcellulose) (HPC)): 97 % of control | T/C [1]: 101 % of control | T/C (dose: 100.0 mg/kg/injection, schedule: Q01DX001 (ip), vehicle: Klucel (hydroxypropylcellulose) (HPC)): 96 % of control | T/C [2]: 104 % of control and 105 % of control | T/C (dose: 200.0 mg/kg/injection, schedule: Q01DX001 (ip), vehicle: Klucel (hydroxypropylcellulose) (HPC)): 94 % of control

COC(=O)COc1ccc2ccccc2c1Cl
T/C [3]: 86 % of control | T/C [4]: 99 % of control | T/C (dose: 400.0 mg/kg/injection, schedule: Q04DX002 (ip), vehicle: Klucel (hydroxypropylcellulose) (HPC)): 96 % of control

Cc1ccc(NC(=O)Oc2cccc(C)c2C)cc1NC(=O)Oc1cccc(C)c1C
T/C [5]: 96 % of control | T/C [6]: 94 % of control | T/C [7]: 93 % of control

Nc1ccc2c(c1)/C(=N/O)c1ccccc1-2
T/C [8]: 105 % of control | T/C [9]: 97 % of control | T/C [10]: 100 % of control

C1C[N+]2(CCO1)CC[N+]1(CCOCC1)CC2
T/C (dose: 100.0 mg/kg/injection, schedule: Q04DX002 (ip), vehicle: saline): 104 % of control | T/C (dose: 200.0 mg/kg/injection, schedule: Q04DX002 (ip), vehicle: saline): 96 % of control | T/C (dose: 400.0 mg/kg/injection, schedule: Q04DX002 (ip), vehicle: saline): 100 % of control

COC(=O)C(Cc1ccccc1)NC(=O)C(COC1OC(COC(C)=O)C(OC(C)=O)C(OC(C)=O)C1NC(C)=O)NC(=O)OCc1ccccc1 (configuration not stated)
T/C (dose: 50.0 mg/kg/injection, schedule: Q04DX002 (ip), vehicle: Klucel (hydroxypropylcellulose) (HPC)): 101 % of control | T/C [3]: 104 % of control | T/C [4]: 101 % of control

O=[N+]([O-])c1ccc(-c2cccc(Cl)c2)c([N+](=O)[O-])c1
T/C [8]: 91 % of control | T/C [9]: 91 % of control | T/C [10]: 95 % of control

C=C1C(=O)OC2C=C(C(O)CC(C)O)C(C)CCC12 (configuration not stated)
T/C (dose: 50.0 mg/kg/injection, schedule: Q01DX001 (ip), vehicle: water): 89 % of control | T/C (dose: 100.0 mg/kg/injection, schedule: Q01DX001 (ip), vehicle: water): 95 % of control | T/C (dose: 200.0 mg/kg/injection, schedule: Q01DX001 (ip), vehicle: water): 94 % of control

COc1ccc(C)cc1NC(=O)Oc1ccc2c(C)cc(=O)oc2c1
T/C [11]: 96 % of control | T/C [12]: 96 % of control

CCSc1ncnc2c1ncn2CN1CCOCC1
T/C (dose: 15.0 mg/kg/injection, schedule: Q01DX009 (ip), vehicle: saline): 116 % of control | T/C (dose: 40.0 mg/kg/injection, schedule: Q01DX009 (ip), vehicle: Klucel (hydroxypropylcellulose) (HPC)): 113 % of control | T/C (dose: 45.0 mg/kg/injection, schedule: Q01DX009 (ip), vehicle: saline): 103 % of control and 111 % of control | T/C [1]: 100 % of control | T/C (dose: 60.0 mg/kg/injection, schedule: Q01DX009 (ip), vehicle: Klucel (hydroxypropylcellulose) (HPC)): 116 % of control | T/C (dose: 65.0 mg/kg/injection, schedule: Q01DX009 (ip), vehicle: saline): 103 % of control and 111 % of control | T/C (dose: 66.0 mg/kg/injection, schedule: Q01DX009 (ip), vehicle: saline): 116 % of control | T/C [13]: 108 % of control | T/C [2]: 105 % of control | T/C [14]: 115 % of control | T/C (dose: 120.0 mg/kg/injection, schedule: Q01DX009 (ip), vehicle: saline): 177 % of control | T/C (dose: 150.0 mg/kg/injection, schedule: Q01DX009 (ip), vehicle: saline): 164 % of control and 168 % of control | T/C (dose: 150.0 mg/kg/injection, schedule: Q04DX003 (ip), vehicle: saline): 111 % of control | T/C (dose: 175.0 mg/kg/injection, schedule: Q01DX009 (ip), vehicle: saline): 151 % of control | T/C [6]: 173 % of control | T/C [15]: 109 % of control | T/C (dose: 220.0 mg/kg/injection, schedule: Q01DX009 (ip), vehicle: saline): 160 % of control | T/C (dose: 220.0 mg/kg/injection, schedule: Q04DX003 (ip), vehicle: saline): 119 % of control | T/C (dose: 225.0 mg/kg/injection, schedule: Q01DX009 (ip), vehicle: saline): 122 % of control | T/C (dose: 265.0 mg/kg/injection, schedule: Q01DX009 (ip), vehicle: saline): 95 % of control | T/C (dose: 330.0 mg/kg/injection, schedule: Q01DX009 (ip), vehicle: saline): 107 % of control | T/C (dose: 400.0 mg/kg/injection, schedule: Q01DX009 (ip), vehicle: saline): 88 % of control

COc1cc2nccc3c4ccccc4n(c1=O)c23
T/C [16]: 97 % of control | T/C [17]: 101 % of control | T/C [18]: 101 % of control | T/C [19]: 97 % of control

CN(C)S(=O)(=O)c1ccc(NC(=O)OC(C)(c2ccccc2)C2CCCCC2)cc1 (configuration not stated)
T/C [17]: 100 % of control | T/C [18]: 100 % of control | T/C [19]: 97 % of control

CC(=O)OCC1OC(n2ncc3c(=S)nc[nH]c32)C(OC(C)=O)C1OC(C)=O (configuration not stated)
T/C (dose: 12.5 mg/kg/injection, schedule: Q01DX005 (ip), vehicle: other): 98 % of control | T/C (dose: 25.0 mg/kg/injection, schedule: Q01DX005 (ip), vehicle: other): 95 % of control | T/C (dose: 50.0 mg/kg/injection, schedule: Q01DX005 (ip), vehicle: other): 104 % of control | T/C (dose: 100.0 mg/kg/injection, schedule: Q01DX005 (ip), vehicle: other): 97 % of control | T/C (dose: 200.0 mg/kg/injection, schedule: Q01DX005 (ip), vehicle: other): 93 % of control

Clc1ccccc1CC12CCCCC1N2 (configuration not stated)
T/C [2]: 103 % of control | T/C [15]: 90 % of control | T/C [20]: 103 % of control

O=C1NCCc2c1[nH]c1ccccc21
T/C (dose: 50.0 mg/kg/injection, schedule: Q01DX009 (ip), vehicle: saline): 90 % of control | T/C [13]: 91 % of control | T/C [14]: 101 % of control | T/C (dose: 200.0 mg/kg/injection, schedule: Q01DX009 (ip), vehicle: saline): 86 % of control | T/C (dose: 200.0 mg/kg/injection, schedule: Q04DX003 (ip), vehicle: saline): 93 % of control

O=[N+]([O-])c1ccc(N2CCC(CCCC3CCN(c4ccc([N+](=O)[O-])cc4[N+](=O)[O-])CC3)CC2)c([N+](=O)[O-])c1
T/C (dose: 25.0 mg/kg/injection, schedule: Q01DX009 (ip), vehicle: Klucel (hydroxypropylcellulose) (HPC)): 101 % of control | T/C (dose: 50.0 mg/kg/injection, schedule: Q01DX009 (ip), vehicle: Klucel (hydroxypropylcellulose) (HPC)): 93 % of control | T/C [5]: 95 % of control and 105 % of control | T/C [2]: 98 % of control | T/C [15]: 97 % of control | T/C [20]: 104 % of control

c1ccc(CNCCCNCc2ccccn2)nc1
T/C [21]: 93 % of control | T/C [11]: 98 % of control

Cc1nc(N)c(Cl)nc1C
T/C [21]: 96 % of control | T/C [11]: 100 % of control and 104 % of control | T/C (dose: 100.0 mg/kg/injection, schedule: Q04DX003 (ip), vehicle: saline with Tween-80): 102 % of control | T/C [12]: 97 % of control and 98 % of control | T/C (dose: 200.0 mg/kg/injection, schedule: Q04DX003 (ip), vehicle: saline with Tween-80): 96 % of control | T/C (dose: 400.0 mg/kg/injection, schedule: Q04DX003 (ip), vehicle: saline with Tween-80): 88 % of control

CCOC(=O)C1CN(c2ccccc2)C(=O)C1=O (configuration not stated)
T/C [16]: 104 % of control | T/C [17]: 98 % of control | T/C [18]: 96 % of control | T/C [19]: 98 % of control

CNC(C(=O)O)c1ccccc1 (configuration not stated)
T/C (dose: 100.0 mg/kg/injection, schedule: Q01DX001 (ip), vehicle: steriod suspending solution): 89 % of control | T/C (dose: 200.0 mg/kg/injection, schedule: Q01DX001 (ip), vehicle: steriod suspending solution): 97 % of control | T/C (dose: 400.0 mg/kg/injection, schedule: Q01DX001 (ip), vehicle: steriod suspending solution): 87 % of control

C[Si](C)(C)c1c(F)c(F)cc(F)c1F
T/C [5]: 98 % of control | T/C [2]: 98 % of control | T/C [6]: 112 % of control | T/C [15]: 95 % of control | T/C [7]: 94 % of control | T/C [20]: 97 % of control
